Source: patent US5677282A (Proscript, Inc., priority 1995, dated 1997)
Where a SMILES comes first, the peptide text is derived from it. [ ]: non-standard residue; d: D form. The star is where a group is joined. Phg = N[CH](C(=O)O)c1ccccc1; Cbz = O=C(OCc1ccccc1)*; X1 = S=c1[nH]nc(N*)s1; Bn = c1ccc(C*)cc1

Experiments:
Type in all cases: biochemical
92 kD gelatinase = 92 kD gelatinase (Homo sapiens, UniProt P14780); assay: Assay of 92 KD gelatinase inhibition activity; details: 92KD gelatinase 25 pM, H-150 buffer pH 7.4; read-out: Ki(app)
Protocol: H-150 buffer, pH 7.4, was prepared by CaCl2 H2 O (1.47 grams), NaCl (8.77 grams) and N-[2-hydroxyethyl]piperazine-N'-[2-ethanesulfonic acid](23.83 grams) to distilled and deionized water and then bring the final volume of the solution to 1 liter. A reaction mixture having a final volume of 500 μL was prepared with H-150 buffer, 200 μgrams of Pro-92KD gelatinase (Strongin et al., J. Biol. Chem., 268:14033 (1993); Goldberg, et al., J. Biol. Chem., 267:4583 (1992); Okada et al., J. Biol. Chem. 267:21712 (1992)), p-aminophenyl mercuric acetate (Sigma Chemical Co., St. Louis, Mo.) (1 mM) and Brij (dodexylpoly(oxyethyleneglycolether))(0,008% w/v). The reaction mixture wsa then incubated for 24 hours at 37° C.
The reaction mixture was applied to a NAP-5 column (G-25 SEPHADEX™, Pharmacia). Fractions containing 72KD gelatinase were identified using 12% polyacrylamide gel electrophoresis and concentrated to about 100-200 μliters by centrifigation (5000 g, 1 hour).
(§1) A solution containing H-150 buffer (2.0 mL), 92KD gelatinase (25 pM) and ethylphenolpoly(ethylene-glycolether)n (Boerhringer Mannheim) (4.0 μM) was prepared in a stirred cuvette. Coumarin peptide substrate (4 μL of a 5 mM solution in dimethyl sulfoxide) was added to the reaction mixture. The rate of hydrolysis was determined for about 100-200 seconds by measuring the fluorescence of the reaction at ex328 nanometers and […] using a Hitachi F-2000 Fluorescence Spectrophotometer.
(§2) 2 μL of a 10 mM inhibitor stock solution (in dimethyl sulfoxide) is added and the reduction in the rate of hydrolysis is determined. Additional 2 μL aliquots of the stock inhibitor solution is added until a 30% to 70% inhibition is observed. Ki is calculated on the assumption of simple competitive inhibition and that the substrate concentration is much less than Km.

72 kD gelatinase = biological target: T1, 72 kD gelatinase (Homo sapiens, UniProt P08253); assay: Assay of 72 KD gelatinase inhibition activity; details: 72KD gelatinase 180 pM, H-150 buffer pH 7.4; read-out: Ki(app)
T1 sequence (P08253 110-660): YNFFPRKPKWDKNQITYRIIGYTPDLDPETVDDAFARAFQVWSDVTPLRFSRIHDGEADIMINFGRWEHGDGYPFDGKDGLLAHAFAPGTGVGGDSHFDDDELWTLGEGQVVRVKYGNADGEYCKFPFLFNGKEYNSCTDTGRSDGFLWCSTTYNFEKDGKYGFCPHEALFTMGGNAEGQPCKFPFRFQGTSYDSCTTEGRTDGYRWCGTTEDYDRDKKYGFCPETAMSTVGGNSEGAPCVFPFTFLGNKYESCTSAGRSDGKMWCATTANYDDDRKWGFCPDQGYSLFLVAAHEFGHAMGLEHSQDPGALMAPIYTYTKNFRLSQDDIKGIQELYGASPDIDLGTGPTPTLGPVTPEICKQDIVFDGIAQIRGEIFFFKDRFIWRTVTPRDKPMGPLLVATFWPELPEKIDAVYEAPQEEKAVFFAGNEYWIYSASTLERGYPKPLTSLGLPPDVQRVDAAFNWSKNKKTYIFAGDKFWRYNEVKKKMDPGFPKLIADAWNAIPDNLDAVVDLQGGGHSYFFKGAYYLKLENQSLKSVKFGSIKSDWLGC
Protocol: H-150 buffer, pH 7.4, was prepared by CaCl2 H2O (1.47 grams), NaCl (8.77 grams) and N-[2 -hydroxyethyl]piperazine-N'-[2-ethanesulfonic acid](23.83 grams) to distilled and deionized water and then bring the final volume of the solution to 1 liter. An reaction mixture having a final volume of 250 μL was prepared with H-150 buffer, 40 μgrams of Pro-72KD gelatinase (Strongin, et al., J. Biol. Chem. 268:14033 (1993); Goldberg, et al., J. Biol. Chem., 267:4583 (1992); Kleiner, et al., Biochemistry 32:1583 (1993)) and p-aminophenyl mercuric acetate (Sigma Chemical Co., St. Louis, Mo.) (1 mM). The reaction mixture was then incubated for 3 hours at 25° C.
The reaction mixture was applied to a NAP-5 column (G-25 SEPHADEX™, Pharmacia). Fractions containing […] were identified using 12% SDS polyacrylamide gel electrphoresis and concentrated to about 100-200 μliters by centrifigation (5000 g, 15 minutes).
as §1, with “mL), 72KD” for “mL), 92KD”, “gelatinase (180” for “gelatinase (25”, “Mannheim) (1.3” for “Mannheim) (4.0”, “substrate (2” for “substrate (4”, “a 1” for “a 5”
as §2

stromelysin = stromelysin (Homo sapiens, UniProt P08254); assay: Assay of stromelysin inhibition activity (fluorogenic coumarin peptide substrate); details: trypsin-activated stromelysin 2 nM, H-150 buffer pH 7.4, room temperature; read-out: Ki(app)
Protocol: Stromelysin was first activated with trypsin. This was done by preparing a reaction mixture in H-150 (H-150 consists of 10 mM CaCl2, 150 mM NaCl and 100 mM HEPES at pH 7.4) containing a final concentration of 25 μg/mL trypsin and 2.2 μM of stromelysin (Marcy et al., Biochemistry,30:6476 (1991); Koklitis et al., Biochem. J., 376:217 (1991). The reaction was incubated for 30 minutes at 37° C. and then quenched by adding trypsin inhibitor agarose to the reaction mixture at a 20 fold excess with respect to trypsin.
The reaction mixture was centrifuged at 14,000 rpm (16,000 ×g) for 30 minutes using an Eppendorf Centrifuge 5415C. The supernant, which contains activated stromelysin, was concentrated with a Centricon 10 (5000 g, 1 hour). A sample was analyzed by Bradford total protein assay and 12% SDS polyacrylamide gel electrophoresis.
All steps of the stromelysin inhibition assay were performed at room temperature. Assay solutions were prepared for each inhibitor tested. Activated stromelysin was added to a stirred covelte to a final concentration of 2 nM in 2 mL of H-150 buffer. 4 μL 5 mM coumarin peptide substrate was dissolved in DMSO and the initial rate of hydrolysis was measured for 100-200 seconds.
Substrate hydrolysis was assessed by fluorescence using a slit width of 10:10, excitation at 328 nm and emission at 393 nm. Ki was calculated based on the assumption of simple competitive inhibition and a substrate concentration much less than Km. 2 μL of 10 mM inhibitor in DMSO was added and the reduction in hydrolysis rate measured. The addition of 2 μL of inhibitor was continued until a 30-70% inhibition was observed.

[1] = biological target: human neutrophil collagenase (Homo sapiens, UniProt P22894); assay: Assay of human neutrophil collagenase inhibition activity; details: human neutrophil collagenase 2 nM, H-150 buffer pH 7.4; read-out: Ki(app)
Protocol: H-150 buffer, pH 7.4, was prepared by adding CaCl2 H2 O (1.47 grams), NaCl (8.77 grams) and N-[2-hydroxyethyl]piperazine-N'-[2-ethanesulfonic acid] (23.83 grams) to distilled and deionized water and then bringing the final volume of the solution to 1 liter.
A reaction mixture with a final volume of 2.0 mL was prepared from H-150 buffer, human neutrophil collagenase (Schnierer, et al., Blochem. Biophys. Res. Comm., 191:319 (1993); Knight et al., Federation of Europena Biochemical Societies 296:263 (1992)) (2 nM). Coumarin peptide substrate (4 μL of a 5 mM solution in dimethyl sulfoxide) was added to the reaction mixture. The rate of hydrolysis was determined for about 100-200 seconds by measuring the fluorescence of the reaction at ex328 nanometers and […] using a Hitachi F-2000 Fluorescence Spectrophotometer.
as §2

Sequence of 92 kD gelatinase (P14780 107-707): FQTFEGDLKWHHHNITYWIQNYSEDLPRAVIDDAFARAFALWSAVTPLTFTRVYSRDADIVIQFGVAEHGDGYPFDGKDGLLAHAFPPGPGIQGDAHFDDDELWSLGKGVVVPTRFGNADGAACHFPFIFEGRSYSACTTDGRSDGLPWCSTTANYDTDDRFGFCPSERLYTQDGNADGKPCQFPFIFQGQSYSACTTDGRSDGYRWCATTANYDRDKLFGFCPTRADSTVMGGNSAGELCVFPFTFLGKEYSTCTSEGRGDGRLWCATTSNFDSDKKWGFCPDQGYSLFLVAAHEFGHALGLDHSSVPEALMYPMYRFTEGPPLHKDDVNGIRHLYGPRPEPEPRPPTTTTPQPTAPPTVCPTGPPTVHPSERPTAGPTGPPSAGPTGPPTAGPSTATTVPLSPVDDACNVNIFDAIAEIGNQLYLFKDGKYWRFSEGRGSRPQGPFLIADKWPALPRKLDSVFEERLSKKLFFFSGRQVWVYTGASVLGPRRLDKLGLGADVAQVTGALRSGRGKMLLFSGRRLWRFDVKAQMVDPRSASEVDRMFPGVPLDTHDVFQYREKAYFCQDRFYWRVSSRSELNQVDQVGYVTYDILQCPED
Sequence of human neutrophil collagenase (P22894 101-467): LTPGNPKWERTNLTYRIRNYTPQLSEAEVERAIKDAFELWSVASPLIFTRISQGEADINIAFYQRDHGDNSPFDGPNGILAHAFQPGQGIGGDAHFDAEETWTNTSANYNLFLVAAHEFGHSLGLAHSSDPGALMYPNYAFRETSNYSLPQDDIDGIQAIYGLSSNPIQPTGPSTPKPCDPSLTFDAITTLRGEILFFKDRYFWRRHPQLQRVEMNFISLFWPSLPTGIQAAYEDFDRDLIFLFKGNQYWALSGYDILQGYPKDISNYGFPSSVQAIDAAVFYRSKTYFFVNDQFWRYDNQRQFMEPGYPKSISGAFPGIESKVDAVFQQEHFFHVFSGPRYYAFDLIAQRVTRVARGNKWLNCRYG
Sequence of stromelysin (P08254 100-477): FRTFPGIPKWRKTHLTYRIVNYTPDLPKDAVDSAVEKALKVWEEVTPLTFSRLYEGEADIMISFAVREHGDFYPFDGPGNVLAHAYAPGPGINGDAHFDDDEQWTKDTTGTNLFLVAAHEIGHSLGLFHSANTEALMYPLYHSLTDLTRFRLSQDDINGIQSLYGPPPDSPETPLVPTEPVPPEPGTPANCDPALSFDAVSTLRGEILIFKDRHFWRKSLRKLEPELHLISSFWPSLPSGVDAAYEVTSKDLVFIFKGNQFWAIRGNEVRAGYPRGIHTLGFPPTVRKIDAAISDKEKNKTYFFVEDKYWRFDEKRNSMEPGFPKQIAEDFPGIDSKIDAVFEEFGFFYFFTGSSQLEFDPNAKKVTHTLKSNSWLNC

Ki (stromelysin) [nM]	Compound	other results
	O=C(N[C@@H](Cc1ccc(OCc2ccccc2)cc1)C(=O)N[C@@H](Cc1ccccc1)C(=O)Nc1n[nH]c(=S)s1)OCc1ccccc1	Ki (92 kD gelatinase): 0.15 nM
	CSCC[C@H](NC(=O)[C@H](Cc1ccccc1)NC(=O)OCc1ccccc1)C(=O)N[C@@H](Cc1ccc(OCc2ccccc2)cc1)C(=O)N[C@H](C(=O)Nc1n[nH]c(=S)s1)c1ccccc1	Ki (72 kD gelatinase): 0.2 nM
	O=C(N[C@H](C(=O)Nc1n[nH]c(=S)s1)c1ccccc1)[C@H](Cc1ccc(OCc2ccccc2)cc1)NC(=O)[C@@H]1CCCN1C(=O)OCc1ccccc1	Ki (92 kD gelatinase): 0.76 nM
101	CC(C)[C@H](NC(=O)[C@H](Cc1ccccc1)NC(=O)c1ccc(Oc2ccccc2)cc1)C(=O)Nc1n[nH]c(=S)s1 [5-(N-(4-phenoxy)benzoyl-phenylalanyl-valylamino)-1,3,4-thiadiazole-2-thione]	Ki [1]: 1.67 nM
	O=C(N[C@@H](Cc1ccccc1)C(=O)Nc1n[nH]c(=S)s1)OCC1c2ccccc2-c2ccccc21 [5-(N-(9-fluorenylmethoxycarbonyl)-phenylalanylamino)-1,3,4-thiadiazole-2-thione]	Ki (92 kD gelatinase): 0.23 nM
	O=C(CNC(=O)[C@H](Cc1ccc(OCc2ccccc2)cc1)NC(=O)OCc1ccccc1)Nc1n[nH]c(=S)s1 [5-(N-benzyloxycarbonyl-(O-Benzyl)tyrosyl-glycylamino)-1,3,4-thiadiazole-2-thione]	Ki (72 kD gelatinase): 0.38 nM
110	O=C(CNC(=O)OCc1ccccc1)NC(Cc1ccc(O)cc1)C(=O)NC(Cc1ccc(OCc2ccccc2)cc1)C(=O)NC(C(=O)Nc1n[nH]c(=S)s1)c1ccccc1 (stereo not drawn) [5-(N-benzyloxycarbonyl-glycyl-tyrosyl-(O-benzyl)tyrosyl)-phenylglycylamino)-1,3,4-thiadiazole-2-thione] (Cbz-GYY(Bn)[Phg]-X1; configuration not given here)	Ki (72 kD gelatinase): 0.073 nM
1400	C[C@H](NC(=O)[C@H](Cc1ccccc1)NC(=O)OCc1ccccc1)C(=O)Nc1n[nH]c(=S)s1 [5-(N-benzyloxycarbonyl-phenylalanyl-alanylamino)-1,3,4-thiadiazole-2-thione]	Ki (92 kD gelatinase): 3.6 nM
	O=C(N[C@@H](Cc1ccccc1)C(=O)N[C@@H](CCc1ccccc1)C(=O)Nc1n[nH]c(=S)s1)OCc1ccccc1 [5-(N-benzyloxycarbonyl-phenylalanyl-homophenylalanylamino)-1,3,4-thiadiazole-2-thione]	Ki [1]: 2.9 nM; Ki (72 kD gelatinase): 0.95 nM
246	CC(C)C[C@H](NC(=O)[C@H](Cc1ccccc1)NC(=O)OCc1ccccc1)C(=O)N[C@@H](Cc1c[nH]c2ccccc12)C(=O)Nc1n[nH]c(=S)s1 [5-(N-benzyloxycarbonyl-phenylalanyl-leucyl-tryptonylamino)-1,3,4-thiadiazole-2-thione]	Ki [1]: 1.45 nM
2360	O=C(N[C@@H](Cc1ccccc1)C(=O)Nc1n[nH]c(=S)s1)OCc1ccccc1 [5-(N-benzyloxycarbonyl-phenylalanylamino)-1,3,4-thiadiazole-2-thione]	
1740	CC(C)C[C@H](NC(=O)[C@@H]1CCCN1C(=O)OCc1ccccc1)C(=O)N[C@@H](C)C(=O)Nc1n[nH]c(=S)s1 [5-(N-benzyloxycarbonyl-prolyl-leucyl-alanylamino)-1,3,4-thiadiazole-2-thione]	
3370	O=C(N[C@@H](Cc1c[nH]c2ccccc12)C(=O)Nc1n[nH]c(=S)s1)OCc1ccccc1 [5-(N-benzyloxycarbonyl-tryptonylamino)-1,3,4-thiadiazole-2-thione]	
741	CC(C)[C@H](NC(=O)[C@H](Cc1c[nH]c2ccccc12)NC(=O)OCc1ccccc1)C(=O)Nc1n[nH]c(=S)s1 [5-(N-benzyloxycarbonyl-tryptoyl-valylamino)-1,3,4-thiadiazole-2-thione]	
267	CC(C)[C@H](NC(=O)[C@H](Cc1ccccc1)NC(=O)CCc1ccccc1)C(=O)Nc1n[nH]c(=S)s1 [5-(N-hydrocinamoyl-phenylalanyl-valylamino-1,3,4-thiadiazole-2-thione]	
83	CCCCCCCCC(=O)N[C@@H](Cc1ccccc1)C(=O)N[C@H](C(=O)Nc1n[nH]c(=S)s1)C(C)C [5-(N-nonanoyl-phenylalanyl-valylamino)-1,3,4-thiadiazole-2-thione]	
180	CC(C)[C@H](NC(=O)[C@H](Cc1ccc([N+](=O)[O-])cc1)NC(=O)OCc1ccccc1)C(=O)Nc1n[nH]c(=S)s1 [5-(benzyloxycarbonyl-(p-nitro)phenylalanyl-valylamino)-1,3,4-thiadiazole-2-thione]	

Compound	Ki (stromelysin) [nM]	other results
CC(C)(C)OC(=O)N[C@@H](CCc1ccccc1)C(=O)Nc1n[nH]c(=S)s1 [5-(N-t-butoxycarbonyl-homophenylalanylamino)-1,3,4-thiadiazole-2-thione]	11900	
CC(C)C[C@H](NC(=O)OC(C)(C)C)C(=O)Nc1n[nH]c(=S)s1 [5-(N-t-butoxycarbonyl-leucylamino)-1,3,4-thiadiazole-2-thione]	10200	
